In the NIST ThermoML archive (doi:10.1016/j.jct.2015.10.013):
Values joined by “and” are separate entries in the source; they are usually repeats but may differ in a detail not shown here. Equal values may be shown once.

What was measured:
[1] = Crystal, Calculated from knudsen effusion weight loss
[2] = molar enthalpy of vaporization or sublimation; conditions: 298.15 K; Crystal; Static calorimetry

CN1c2ccccc2Sc2ccccc21 [10-methylphenothiazine]
[1]
Conditions | vapor or sublimation pressure
337.16 K | 9.9e-05 kPa and 9.8e-05 kPa and 9.7e-05 kPa
339.27 K | 0.000127 kPa and 0.000128 kPa and 0.000124 kPa
341.16 K | 0.000156 kPa and 0.000152 kPa
343.16 K | 0.000187 kPa and 0.000186 kPa and 0.000188 kPa
345.25 K | 0.000242 kPa and 0.000237 kPa and 0.000246 kPa
347.15 K | 0.000294 kPa and 0.000295 kPa and 0.000286 kPa
349.16 K | 0.000354 kPa and 0.000353 kPa and 0.000361 kPa
351.26 K | 0.000456 kPa and 0.000445 kPa and 0.00046 kPa
353.16 K | 0.000551 kPa and 0.000553 kPa and 0.000539 kPa
355.16 K | 0.000655 kPa and 0.000671 kPa
357.26 K | 0.000853 kPa and 0.00084 kPa and 0.000822 kPa
359.15 K | 0.001002 kPa and 0.001018 kPa and 0.00102 kPa

Conditions | molar enthalpy [kJ/mol]
[2] | 104
